Assay results reported in patent US20190086391A1, “METHOD AND SYSTEM FOR CONTINUOUS BIOSENSING” (Yissum Research Development Company of the Hebrew …, priority 2016, published 2019).
Several values for one entry are separate records, joined by “and”; a condition that tells them apart may be missing. Equal entries are not always repeated. Entries after “also recorded” stand apart in the source; their conditions may differ. Where two headings read alike, the source gives them in different places.

Columns and labels:
[1] = Real-time oxygen uptake in perfused microwell bioreactor; type: cell-based, human; details: human
Protocol: (§1) PDMS microwell inserts were sterilized with 70% EtOH and 30 min exposure to UV light prior to cell seeding. Cells were trypsinized, counted and centrifuged at 300×g for 5 min at 4° C. The pellet was then mixed with […] CPOx-50-RuP oxygen-sensing beads (Colibri Photonics, Germany) and resuspended in 100 μl of ice-cold solution of collagen type I (BD Biosciences, USA) for a final seeding density of 4×10^6 cells/ml. The PDMS microwell insert was placed on ice and coated with ice-cold collagen solution for 5 min to remove air bubbles. Then 100 μl of collagen type I suspension containing cells and oxygen-sensing beads was layered on top the wells and incubated for 10 min on ice. The low temperature prevented premature collagen polymerization and the induction of cellular stress response pathways. Afterwards, excess cell and microbead suspension was gently wiped off the microwell insert using a sterile glass coverslip leading to a concentration of 100,000 cells and 20 oxygen-sensing beads per well. Variance in cell density between individual wells and between bioreactors was less than 10% measured by DNA content. The inoculated microwell insert was then incubated for 5 min at 37° C. to polymerize the collagen. Following polymerization, the insert was immersed in 5 ml of cell culture medium and incubated for 20 min at 37° C. prior to being sealed in the bioreactor housing. Bioreactors were then placed in a climate control chamber (Evotec, Germany) on an IX81 fluorescence microscope (Olympus, Japan). Bioreactors were continuously perfused with cell culture medium noted above supplemented with 10 mM HEPES and 1% DMSO at a flow rate of 2 μl/min. The automated and motorized microscope stage was equipped with a holder for three microreactors, allowing three experiments to run simultaneously.
(§2) Troglitazone (T2573), and rotenone (R8875) were purchased from Sigma-Aldrich (Schnelldorf, Germany) and diluted from H2O or DMSO stock concentration 1:1000 into HepG2/C3A culture medium. Exposure onset was calculated to within ±1 min based on volumetric flow rate, considering the length of the tubing and bioreactor volume.
(§3) Real-time oxygen measurements were performed optically using lifetime-based luminescencequenching as previously described (11). […] Excited by a sinusoidal amplitude-modulated 532 nm LED source, the microbeads emit a sinusoidal amplitudemodulated light at 605 nm that is shifted in phase due to oxygen quenching (FIG. 2D). To overcome the superposition of in-phase background fluorescence that alters the phase of the detected signal, a 53.5 kHz and 31.3 kHz two-frequency phase modulation was used. This allowed screening out background interference (26-28). Measurements were carried out by averaging 5 consecutive 3 second exposures, followed by 17 seconds intervals, for a total of 100 seconds. Measurements were taken every 15 minutes for as long as 28 days with no phototoxicity, signal drift, or relevant loss of signal intensity. The apparatus consists of the OPAL package (Colibri Photonics, Germany) that is comprised of a control module, 532 nm LED, and a photomultiplier (PMT) detector mounted on the ocular of an […] Olympus microscope (Olympus, Japan). A filter cube with 531/40 (Ex), 607/70 (Em) was inserted in the optical light path during measurements.

HepG2/C3A cells [2] = assay: as above; type: cell-based, human
Protocol: as §1, §2, §3

HepG2/C3A cells [3] = assay: CDFDA staining for cholestasis (CDF retention, MRP2); type: cell-based, human; details: 24 hours exposure to 200 μM; due to inhibition of MRP2
Protocol: (§4) PMDS microwell inserts were removed from the bioreactor following 24 hours exposure to rotenone or troglitazone. Cholestasis was evaluated using 5(6)-carboxy-2′, 7′-dichlorofluorescein diacetate (CDFDA) cell permeable dye which is metabolized to fluorescent CDF and secreted to active bile canaliculi by active multidrug resistance-associated protein 2 (MRP2). Briefly, cells were incubated with 2 μg/mL of CDFDA and 1 μg/mL of Hoechst 33342 for 20 min, and washed with PBS. Number of bile canaliculi foci was normalized for number of Hoechst-labeled nuclei. Apoptosis was evaluated using DeadEnd™ fluorometric TUNEL system (Promega, USA) according to manufacturer directions. Briefly, cells were fixed in 4% paraformaldehyde, permeabilized and exposed to fluorescein-12-dUTP and terminal deoxynucleotidyl transferase (TdT), dyeing apoptotic nuclei green. The reaction was subsequently stopped and the cells counterstained for Hoechst. A percent apoptotic nucleus was calculated by dividing the number of TUNEL to Hoechst positive nuclei.

HepG2/C3A organoids = assay: LIVE/DEAD cell viability staining; type: cell-based; details: 50 μM, 24 hours
Protocol: Unless otherwise noted, cell viability was determined utilizing LIVE/DEAD Cytotoxicity kit (Molecular Probes, Eugene, Oreg.) according to manufacturer's instructions. In brief, cultures were incubated with 2 μM Calcein AM and 3 μM ethidium homodimer-1 for 25 minutes. Hydrolysis by functional intracellular esterases causes live cells to fluoresce green, while the punctured membranes of dead cells permit ethidium homodimer-1 to bind DNA and fluoresce red. Cellular viability was calculated by live to dead ratio and normalized to negative control.

[4] = test system: primary human hepatocytes; details: cited from earlier work
HepG2/C3A cells [5] = assay: TUNEL apoptosis assay; type: cell-based, human; details: 24 hours exposure to 200 μM
Protocol: as §4

isolated mitochondria = assay: Oxygen consumption rate of ADP-stimulated isolated mitochondria; type: biochemical; details: 50 μM injected after ADP; no enzymatic activation
Protocol: Mitochondria were isolated using a Mitochondria Isolation Kit (Abcam, UK) per manufacturer instructions. Briefly, 10^7 cells were collected and ruptured using 30 strokes in a pre-cooled dounce homogenizer. Homogenate was centrifuged twice at 1,000×g for 10 minutes at 4° C. to remove debris, and finally at 12,000×g for 15 minutes at 4° C. Pellet containing the isolated mitochondria was resuspended in a protease inhibitor cocktail. Protein concentration was determined using Bradford. 20 μg of mitochondrial protein per well was plated in gelatin-coated SeaHorse XFp cell culture miniplate and centrifuged at 3,000×g for 20 minutes at 4° C. in mitochondrial assay solution (MAS) as previously described (29). Oxygen consumption rate (OCR) was measured by the XFp Extracellular Flux Analyzer (Seahorse Biosciences, USA). Mitochondrial activity was profiled by successive injections of ADP (Sigma-Aldrich, Israel) and 50 μM of troglitazone, rotenone or DMSO control.

HepG2/C3A cells [6] = assay: Quantification of ATP/ADP ratio; type: cell-based, human; details: 50 μM
Protocol: Intracellular ATP and ADP quantification was carried out using Abeam ADP/ATP Assay Kit (#ab65313), according to manufacturer's instructions. […] Cells were incubated in nucleotide releasing buffer for 5 min at room temperature, with gentle shaking. Background bioluminescence reading of the reaction mix was taken for calibration, followed by 2 min incubation of 50 μl sample solution in each reaction well, and a bioluminescence reading to measure cellular ATP content. ADP converting enzyme was then added, as instructed, following incubation of 2 min at room temperature to measure total ADP+ATP.

Structure (SMILES): Cc1c(C)c2c(c(C)c1O)CCC(C)(COc1ccc(CC3SC(=O)NC3=O)cc1)O2 (stereo not drawn) [troglitazone]
- CC50 at 24 h [1]: 285 µM
- reduction of oxygen uptake (HepG2/C3A cells [2]; 50 μM): 10%
- oxygen uptake, % of normal respiration (HepG2/C3A cells [2]; 350 μM, 24 hours exposure): 32%
- oxygen uptake, % of normal respiration (HepG2/C3A cells [2]; 500 μM, 24 hours exposure): 15%
- oxygen uptake, % of normal respiration (HepG2/C3A cells [2]; 2000 μM, 24 hours exposure): 8%
- increase in intracellular accumulation of bile acids / CDF staining (cholestasis) (HepG2/C3A cells [3]): 4.5 fold and 4.5±0.6 fold
- cell death (Live/Dead) (HepG2/C3A organoids): Less than 5%
- cell viability compared with untreated control (HepG2/C3A organoids): not significantly different from untreated control
- CC50 ([4]; read-out: TC50 in primary hepatocytes): 100 µM

Structure (SMILES): C=C(C)[C@H]1Cc2c(ccc3c2O[C@@H]2COc4cc(OC)c(OC)cc4[C@@H]2C3=O)O1 [rotenone]
- CC50 at 12 h ([1]; after 12 hours, read-out: TC50 (dose dependence of oxygen uptake)): 12.5 µM
- oxygen uptake, % of normal respiration (HepG2/C3A cells [2]; 1 μM, 12 hours exposure): 35%
- reduction of oxygen uptake (HepG2/C3A cells [2]; 50 μM): 80%
- oxygen uptake, % of normal respiration (HepG2/C3A cells [2]; 50 μM, 12 hours exposure): 27%
- oxygen uptake, % of normal respiration (HepG2/C3A cells [2]; 200 μM, 12 hours exposure): 15%
- time to onset of mitochondrial damage (HepG2/C3A cells [2]; 0.2 mM): ≤ 6 min
- time within which the majority of the effect on oxygen uptake occurred (HepG2/C3A cells [2]; 1, 50, 200 μM): ≤ 60 min
- time to onset of mitochondrial damage, in words (HepG2/C3A cells [2]; dose-dependent): in minutes rather than hours
- increase in apoptosis (TUNEL) (HepG2/C3A cells [5]): 14 fold and 14±2 fold
- loss of OCR / inhibition of mitochondrial respiration in isolated mitochondria (isolated mitochondria): immediate; also recorded: directly inhibit mitochondrial respiration in minutes
- decrease in ATP/ADP ratio (HepG2/C3A cells [6]): 47%
- CC50 [4]: 2 µM
